Source: the supplement of paper PMC4954754
± gives the uncertainty stated by the source.

Columns and labels:
Conditions in all cases: 18 h
HEK293T-Rex ERSE-FLuc [1] = test: EC50 for ERSE-FLuc reporter activation
Procedure: (§1)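 Dose-response of hit compounds in HEK293T-Rex cells stably expressing ERSE-FLuc or XBP1-RLuc reporters, 18 hr treatment, 1536-well; luminescence normalised to 500 nM thapsigargin (100%) and DMSO (0%), fitted to give EC50 (M) and maximal activation; '>' marks EC50 above the top tested dose (~17 µM).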

HEK293T-Rex XBP1-RLuc [2] = test: maximal XBP1-RLuc activation from dose-response fit, relative to thapsigargin (% of thapsigargin); higher = stronger activation
Procedure: as §1

HEK293T-Rex XBP1-RLuc [3] = test: EC50 for XBP1-RLuc reporter activation
Procedure: as §1

HEK293T-Rex ERSE-FLuc [4] = test: maximal ERSE-FLuc activation from dose-response fit, relative to thapsigargin (% of thapsigargin); higher = stronger activation
Procedure: as §1

Structure (SMILES)	EC50 for ERSE-FLuc reporter activation (HEK293T-Rex ERSE-FLuc [1])	maximal XBP1-RLuc activation (HEK293T-Rex XBP1-RLuc [2])	EC50 for XBP1-RLuc reporter activation (HEK293T-Rex XBP1-RLuc [3])	maximal ERSE-FLuc activation (HEK293T-Rex ERSE-FLuc [4])
O=C(N/N=C\c1ccccc1[N+](=O)[O-])c1[nH]nc2c1CCc1ccccc1-2	> 16.9 µM	5.31 ± 2.3	> 16.9 µM	23 ± 4.3
COc1ccc2oc(=Nc3cc(F)ccc3F)c(C(N)=O)cc2c1	> 14.7 µM	1.95 ± 1.5	> 14.7 µM	19.1 ± 2.2
COC(=O)c1ccc(C(=O)Nc2ccccc2N)cc1	9.08 µM	28 ± 2.5	> 17.8 µM	91.1 ± 14
N#Cc1c(NC(=O)c2ccc3ncsc3c2)sc2c1CCC2	> 16.6 µM	4.53 ± 1.1	> 16.6 µM	22.2 ± 2.5
N#C/C(=C(/O)c1cc(-c2ccccc2)nc2ccccc12)c1nc2ccccc2[nH]1	> 15.9 µM	17.9 ± 1.4	> 15.9 µM	24.8 ± 8.7
O=C(Nc1ccccc1O)c1cc2ccccc2o1	> 21 µM	20.1 ± 3.2	> 21 µM	40.6 ± 8.2
CCOc1ccc(NC(=O)c2cccc(F)c2)c([N+](=O)[O-])c1	> 14.3 µM	2.67 ± 1.8	> 14.3 µM	26.4 ± 1.6
O=C(NCCCn1ccnc1)c1cc(-c2cccs2)on1	9.58 µM	12.1 ± 0.83	> 16.9 µM	89.1 ± 3.8
COc1ccc(/C=C/c2ccc3cccc(OC(C)=O)c3n2)cc1OC(C)=O	> 16.9 µM	15 ± 2.1	> 16.9 µM	25.7 ± 5.6
Cc1ccc(Nc2nc(N)c3ccccc3n2)cc1Cl	10 µM	48.1 ± 5.2	> 16.9 µM	111 ± 7.9
NN1C(=O)/C(=C/c2ccc(O)c(O)c2)SC1=S	11.7 µM	33.2 ± 4.3	> 16.9 µM	53.7 ± 2.2
Oc1ccc(/C=N/Nc2cccc3cccnc23)cc1O	> 16.9 µM	35 ± 3.2	> 16.9 µM	30.7 ± 5.1
CNc1ccc2oc(C[C@H]3O[C@@]4(CC[C@H]3C)O[C@H]([C@H](C)C(=O)c3ccc[nH]3)[C@H](C)C[C@H]4C)nc2c1C(=O)O	2.39 µM	91.4 ± 5.9	4.49 µM	56.9 ± 16
CC(=O)NC1C(OC2OC(CC(O)C3OC(n4ccc(=O)[nH]c4=O)C(O)C3O)C(O)C(O)C2NC(=O)/C=C\CCCCCCCCCC(C)C)OC(CO)C(O)C1O (configuration not stated)	0.521 µM	45 ± 4.9	> 16.9 µM	139 ± 19
O=C(N/N=C/c1cccc(Cl)c1Cl)c1ccccc1O	> 16.9 µM	2.04 ± 0.65	> 16.9 µM	6.19 ± 0.61
Cc1ccc(O)c(NC(=O)CSc2ccccc2)c1	3.9 µM	21.2 ± 3.5	> 16.9 µM	83.1 ± 25
Cc1ccc(O)c(-c2cc(-c3cccs3)[nH]n2)c1	8.75 µM	27.5 ± 2.1	> 18.9 µM	131 ± 8.8
O=C(NC(c1ccccc1)c1ccccc1)c1csc(-c2cnccn2)n1	> 16.9 µM	43.4 ± 9.4	> 16.9 µM	34.2 ± 3.6
